Test results as given in ChEMBL document CHEMBL3045906, “LCMS/MS method for simultaneous analysis of cladrin and equol in rat plasma and its application in pharmacokinetics study of cladrin” (Med Chem Res, 2011).

Key:
Plasma = assay: Drug recovery in Rattus norvegicus (rat) plasma at 50 ng/ml by LLE method; assay type: ADME, cell-free
[1] = Stability of the compound in Rattus norvegicus (rat) plasma at 62.5 ng/ml after 2 months at -80 degC; assay type: ADME, cell-free; conditions: read-out: Stability
[2] = Stability of the compound in Rattus norvegicus (rat) plasma at 7.8 ng/ml after three 24 hr cycles of freeze-thaw on storing at -80 degC; assay type: ADME, cell-free; conditions: read-out: Stability
[3] = Stability of the compound in Rattus norvegicus (rat) plasma at 1000 ng/ml after 2 months at -80 degC; assay type: ADME, cell-free; conditions: read-out: Stability
[4] = Stability of the compound in Rattus norvegicus (rat) plasma at 1000 ng/ml after three 24 hr cycles of freeze-thaw on storing at -80 degC; assay type: ADME, cell-free; conditions: read-out: Stability
[5] = Stability of the compound in Rattus norvegicus (rat) plasma at 62.5 ng/ml after three 24 hr cycles of freeze-thaw on storing at -80 degC; assay type: ADME, cell-free; conditions: read-out: Stability
[6] = Stability of the compound in Rattus norvegicus (rat) plasma at 7.8 ng/ml after 2 months at -80 degC; assay type: ADME, cell-free; conditions: read-out: Stability
[7] = Mean residence time in Rattus norvegicus Sprague-Dawley (rat) at 10 mg/kg, po; assay type: ADME, organism-based; parameters: dose 10 mg/kg, route oral; conditions: in vivo
[8] = Cmax in Rattus norvegicus Sprague-Dawley (rat) at 10 mg/kg, po; assay type: ADME, organism-based; parameters: dose 10 mg/kg, route oral; conditions: in vivo
[9] = AUC (0 to alpha) in Rattus norvegicus Sprague-Dawley (rat) at 10 mg/kg, po; assay type: ADME, organism-based; parameters: dose 10 mg/kg, route oral; conditions: plasma
[10] = Tmax in Rattus norvegicus Sprague-Dawley (rat) at 10 mg/kg, po; assay type: ADME, organism-based; parameters: dose 10 mg/kg, route oral; conditions: in vivo
[11] = Half life in Rattus norvegicus Sprague-Dawley (rat) at 10 mg/kg, po; assay type: ADME, organism-based; parameters: dose 10 mg/kg, route oral; conditions: in vivo

| Drug recovery (Plasma) | remaining at 1461 h, 62.5 ng/ml [1] | remaining at 24 h, 7.8 ng/ml [2] | remaining at 1461 h, 1000 ng/ml [3] | remaining at 24 h, 1000 ng/ml [4] | remaining at 24 h, 62.5 ng/ml [5] | remaining at 1461 h, 7.8 ng/ml [6] | MRT [7] | Cmax [8] | AUC [9] | Tmax [10] | half-life [11] | Structure (SMILES) |
| --- | --- | --- | --- | --- | --- | --- | --- | --- | --- | --- | --- | --- |
| 85.3% |  |  |  |  |  |  |  |  |  |  |  | O=c1c(-c2ccccc2)coc2cc(O)ccc12 [7-HYDROXY ISOFLAVONE] |
| 76.5% | 103% | 93.9% | 95.6% | 91.8% | 94.6% | 100% |  |  |  |  |  | Oc1ccc([C@H]2COc3cc(O)ccc3C2)cc1 [AUS-131] |
| 83.5% | 84.5% | 93.6% | 81.4% | 88.2% | 98.5% | 106% | 10.8 h | 44.8 ng/mL | 609 ng·h/mL | 0.5 h | 4.1 h | COc1ccc(-c2coc3cc(O)ccc3c2=O)cc1OC [CLADRIN] |
